Results as given in US5270190A, “Method for producing (R)-malic acid from maleic acid using microbial maleate hydratase” (priority 1992, dated 1993).
Like-named read-outs stand apart in the source and are kept apart here. Each block holds one molecule with its values, some of them ahead of it.

Tests used:
maleate hydratase = test: Induction of maleate hydratase by additions to the basal medium (specific activity of the cell sonicate supernatant); type: cell-based, Brevibacterium helvolum ATCC 11822; details: for Specific Activity (amount of (R)-malic acid formed): crude enzyme reacted with maleate at 30° C. for 60 minutes, pH 7.2
Experimental: (§1) In order to obtain a culture containing a maleate hydratase activity by cultivating microorganism capable of producing this enzyme, usual cultivation methods can be used; namely cultivating in a nutrient medium containing organic compounds as a carbon source, organic and/or inorganic compounds as a nitrogen source, and mineral salts, at pH 4 to 10, at 10° to 40° C. It is preferred to add at least one compound selected from the group consisting of maleic acid and citraconic acid since a culture having high maleate hydratase activity can be obtained by the addition of such compound. The concentration of these compounds to be added in a medium is generally from about 0.1 to 3% by weight, preferably from about 0.5 to 2% by weight. The effect of these compounds is shown in Table 1 hereinbelow and Examples 1 and 2.
(§2) *Basal Medium: NH4 Cl 0.1%, KH2 PO4 0.14%, Na2
**Determined by the amount of (R)malic acid formed when reaction mixture
(total volume 2,000 μl, pH 7.2) containing 50 mM TrisHCl buffer (1,700
μl), 100 mM maleate (200 μl), and crude enzyme preparation (cells
sonicate supernatant, 100 μl) was reacted at 30° C. for 60

[1] = test system: Brevibacterium helvolum ATCC 11822; test: Growth in basal medium with additions; type: cell-based; details: 1% addition to basal medium
Experimental: as §1, §2

[2] = test system: microbial maleate hydratase; type: biochemical
[3] = test system: microbial maleate hydratase; test: Action and specificity of the enzyme (substrate); type: biochemical
Description: The enzyme catalyzes a reaction in which maleic acid is hydrated to form (R)-malic acid.

Induction Fold (maleate hydratase; 1% addition to basal medium, relative to no addition (1.0)): 4.8
SMILES: C/C(=C/C(=O)O)C(=O)O [Citraconic Acid, citraconic acid]
Specific Activity (amount of (R)-malic acid formed) (maleate hydratase; 1% addition to basal medium): 3.13
Growth at 68 Hours O.D. (660 nm) [1]: 4.1

SMILES: O=C(O)CN(CCN(CC(=O)O)CC(=O)O)CC(=O)O [EDTA]
inhibition of enzyme activity [2]: no inhibition

SMILES: O=C(O)CI [IAA, iodoacetic acid]
inhibition of enzyme activity [2]: 12%

Induction Fold (maleate hydratase; 1 %): 3.9
SMILES: O=C(O)/C=C\C(=O)O [Maleic Acid, maleic acid]
Specific Activity (amount of (R)-malic acid formed) (maleate hydratase; 1% addition to basal medium): 2.56
Growth at 68 Hours O.D. (660 nm) [1]: 4.5

SMILES: CCN1C(=O)C=CC1=O [NEM, N-ethylmaleimide]
inhibition of enzyme activity ([2]; inhibitor at 10 mM): 33%

SMILES: [Na+].[O-][I+3]([O-])([O-])[O-] [NaIO4, sodium metaperiodate]
inhibition of enzyme activity ([2]; inhibitor concentration 1 mM): 17%

SMILES: O=C(O)c1cc[c]([Hg][Cl])cc1 [PCMB, p-chloromercuribenzoic acid]
inhibition of enzyme activity ([2]; inhibitor concentration 1 mM): 100%

SMILES: O=S(=O)(F)Cc1ccccc1 [PMSF, phenylmethylsulfonylfluoride]
inhibition of enzyme activity ([2]; inhibitor concentration 1 mM): no inhibition

action of the enzyme on the substance as substrate [3]: does not act
SMILES: O=C(O)/C=C/C(=O)O [fumaric acid]
